According to ChEMBL document CHEMBL5465560, “Selectivity Literature for EUbOPEN Chemogenomic Library” (2024):

Legend:
[1] = target: Mitogen-activated protein kinase kinase kinase 20 (Homo sapiens) (UniProt Q9NYL2); assay: Selectivity interaction (KinomeScan (DiscoverX)) EUB0001049a MAP3K20; conditions: at 1 µM
[2] = target: T1, Serine/threonine-protein kinase Nek2 (Homo sapiens) (UniProt P51955); assay: Selectivity interaction (KinomeScan (DiscoverX)) EUB0001049a NEK2; conditions: at 1 µM
T1 sequence (whole entry): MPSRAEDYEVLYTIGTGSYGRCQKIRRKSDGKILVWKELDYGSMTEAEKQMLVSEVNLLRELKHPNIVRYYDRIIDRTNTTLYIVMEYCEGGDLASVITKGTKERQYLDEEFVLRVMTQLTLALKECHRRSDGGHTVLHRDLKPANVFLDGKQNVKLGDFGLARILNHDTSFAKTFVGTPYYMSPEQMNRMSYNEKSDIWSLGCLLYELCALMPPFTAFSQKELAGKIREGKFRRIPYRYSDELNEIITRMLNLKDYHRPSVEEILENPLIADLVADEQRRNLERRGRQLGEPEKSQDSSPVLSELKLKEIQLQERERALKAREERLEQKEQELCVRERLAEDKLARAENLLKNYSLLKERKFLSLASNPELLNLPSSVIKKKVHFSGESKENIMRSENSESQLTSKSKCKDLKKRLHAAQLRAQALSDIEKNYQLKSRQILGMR

[3] = target: DNA (cytosine-5)-methyltransferase 3B (Homo sapiens) (UniProt Q9UBC3); conditions: at 1 µM
[4] = target: T2, Phosphorylase b kinase gamma catalytic chain, liver/testis isoform (Homo sapiens) (UniProt P15735); assay: Selectivity interaction (KinomeScan (DiscoverX)) EUB0000229b PHKG2; conditions: at 10 µM
T2 sequence (whole entry): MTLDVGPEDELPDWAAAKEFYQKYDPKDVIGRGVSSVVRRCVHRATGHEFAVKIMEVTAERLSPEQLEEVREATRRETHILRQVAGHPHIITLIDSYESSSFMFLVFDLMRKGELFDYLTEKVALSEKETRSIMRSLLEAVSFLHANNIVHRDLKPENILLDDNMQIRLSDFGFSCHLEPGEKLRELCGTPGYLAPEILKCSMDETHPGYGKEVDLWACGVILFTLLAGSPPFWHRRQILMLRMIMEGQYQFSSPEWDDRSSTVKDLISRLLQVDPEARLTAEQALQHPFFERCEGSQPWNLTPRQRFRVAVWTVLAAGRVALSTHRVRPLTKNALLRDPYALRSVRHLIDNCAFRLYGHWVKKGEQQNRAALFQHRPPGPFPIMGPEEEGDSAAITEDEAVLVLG

[5] = target: Growth hormone secretagogue receptor type 1 (Homo sapiens, UniProt Q92847); assay: Selectivity interaction (Ghrelin receptor binding assay, human recombinant ) EUB0000877a […]
Sequence of Growth hormone secretagogue receptor type 1 (Q92847 whole entry): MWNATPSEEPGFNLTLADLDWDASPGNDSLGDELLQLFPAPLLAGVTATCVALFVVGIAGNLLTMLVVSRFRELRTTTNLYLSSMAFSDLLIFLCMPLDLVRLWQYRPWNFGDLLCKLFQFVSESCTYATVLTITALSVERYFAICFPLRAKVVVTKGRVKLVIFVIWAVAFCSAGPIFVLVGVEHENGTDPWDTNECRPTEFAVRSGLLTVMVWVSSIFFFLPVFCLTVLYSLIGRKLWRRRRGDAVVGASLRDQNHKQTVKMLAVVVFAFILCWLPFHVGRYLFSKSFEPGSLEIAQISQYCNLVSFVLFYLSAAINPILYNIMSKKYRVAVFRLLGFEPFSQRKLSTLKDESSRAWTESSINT

[6] = target: Cyclin-dependent kinase 12 (Homo sapiens, UniProt Q9NYV4); assay: Selectivity interaction (ActivX KiNativ screen (kinase selectivity in THP-1 cell lysates)) EUB0000639a CDK12; format: subcellular; conditions: lysate
Sequence of Cyclin-dependent kinase 12 (Q9NYV4 whole entry, looked up): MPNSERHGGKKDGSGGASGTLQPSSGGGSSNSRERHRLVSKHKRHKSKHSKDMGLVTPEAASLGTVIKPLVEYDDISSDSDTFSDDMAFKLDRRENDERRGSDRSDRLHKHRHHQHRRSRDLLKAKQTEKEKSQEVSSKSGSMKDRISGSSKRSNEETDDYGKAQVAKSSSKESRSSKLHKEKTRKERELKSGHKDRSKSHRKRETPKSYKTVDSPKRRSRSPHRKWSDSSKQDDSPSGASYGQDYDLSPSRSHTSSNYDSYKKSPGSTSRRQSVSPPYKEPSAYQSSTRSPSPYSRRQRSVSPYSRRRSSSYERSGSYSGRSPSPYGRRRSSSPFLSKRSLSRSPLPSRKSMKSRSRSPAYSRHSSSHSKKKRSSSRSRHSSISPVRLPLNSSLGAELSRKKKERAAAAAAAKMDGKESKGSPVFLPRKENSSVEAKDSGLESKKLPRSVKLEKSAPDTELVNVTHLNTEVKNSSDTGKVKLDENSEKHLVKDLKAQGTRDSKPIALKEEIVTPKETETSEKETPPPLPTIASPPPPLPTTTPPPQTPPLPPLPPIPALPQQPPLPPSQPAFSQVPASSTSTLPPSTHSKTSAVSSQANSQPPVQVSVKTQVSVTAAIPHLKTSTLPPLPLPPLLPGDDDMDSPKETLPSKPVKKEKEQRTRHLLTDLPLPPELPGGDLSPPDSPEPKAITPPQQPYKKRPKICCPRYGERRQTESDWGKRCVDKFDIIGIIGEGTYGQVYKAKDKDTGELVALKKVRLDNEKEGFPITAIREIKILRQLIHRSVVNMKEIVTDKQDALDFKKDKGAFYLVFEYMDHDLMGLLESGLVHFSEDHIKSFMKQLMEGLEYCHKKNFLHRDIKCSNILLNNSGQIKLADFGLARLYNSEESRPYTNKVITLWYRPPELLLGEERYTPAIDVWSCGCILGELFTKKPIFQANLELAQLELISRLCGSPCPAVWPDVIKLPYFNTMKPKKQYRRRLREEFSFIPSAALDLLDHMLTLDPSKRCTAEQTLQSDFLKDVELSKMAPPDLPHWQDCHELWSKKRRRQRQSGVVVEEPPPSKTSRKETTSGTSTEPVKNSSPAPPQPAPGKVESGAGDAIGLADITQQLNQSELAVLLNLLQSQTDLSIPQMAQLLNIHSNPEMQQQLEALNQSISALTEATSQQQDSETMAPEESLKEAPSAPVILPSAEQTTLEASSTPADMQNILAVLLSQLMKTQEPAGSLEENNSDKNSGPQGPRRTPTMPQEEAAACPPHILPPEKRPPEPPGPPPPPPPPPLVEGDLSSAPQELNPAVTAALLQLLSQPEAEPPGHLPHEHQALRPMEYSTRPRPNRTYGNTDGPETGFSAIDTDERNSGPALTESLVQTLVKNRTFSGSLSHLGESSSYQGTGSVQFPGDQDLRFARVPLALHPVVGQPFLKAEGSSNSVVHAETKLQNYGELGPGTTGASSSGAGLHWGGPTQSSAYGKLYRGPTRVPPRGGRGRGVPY

[7] = target: Fibroblast growth factor receptor 2 (Homo sapiens) (UniProt P21802); assay: Selectivity interaction (Kinase screening (Nanosyn)) EUB0000604a FGFR2
Sequence of Fibroblast growth factor receptor 2 (Homo sapiens) (P21802 22-821 limits assumed): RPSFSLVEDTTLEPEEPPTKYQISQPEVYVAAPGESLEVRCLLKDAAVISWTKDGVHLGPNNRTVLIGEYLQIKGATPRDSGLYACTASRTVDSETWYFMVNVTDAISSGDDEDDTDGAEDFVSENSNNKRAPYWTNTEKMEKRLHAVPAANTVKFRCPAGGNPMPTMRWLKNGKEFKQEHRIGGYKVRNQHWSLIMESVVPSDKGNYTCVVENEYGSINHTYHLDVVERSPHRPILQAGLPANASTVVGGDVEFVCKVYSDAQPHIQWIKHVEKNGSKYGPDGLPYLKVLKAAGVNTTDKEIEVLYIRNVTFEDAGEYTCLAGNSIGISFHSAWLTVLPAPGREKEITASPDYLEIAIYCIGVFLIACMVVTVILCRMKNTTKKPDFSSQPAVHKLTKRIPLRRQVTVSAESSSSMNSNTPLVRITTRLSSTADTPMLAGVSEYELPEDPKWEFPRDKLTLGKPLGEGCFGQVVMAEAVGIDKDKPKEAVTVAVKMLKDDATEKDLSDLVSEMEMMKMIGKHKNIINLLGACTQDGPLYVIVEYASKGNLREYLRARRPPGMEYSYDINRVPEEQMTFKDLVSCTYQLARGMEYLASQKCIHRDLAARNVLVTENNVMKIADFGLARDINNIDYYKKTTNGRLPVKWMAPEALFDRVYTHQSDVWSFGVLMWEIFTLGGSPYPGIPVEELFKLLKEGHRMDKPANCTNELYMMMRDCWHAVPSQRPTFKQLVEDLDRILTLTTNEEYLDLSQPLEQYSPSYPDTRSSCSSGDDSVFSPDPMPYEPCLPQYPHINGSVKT

[8] = tested on: Epidermal growth factor receptor (Homo sapiens), P00533 [UNDEFINED MUTATION]; conditions: at 10 µM
Sequence of Epidermal growth factor receptor (Homo sapiens), P00533 [UNDEFINED MUTATION] (P00533 whole entry, looked up, change not shown): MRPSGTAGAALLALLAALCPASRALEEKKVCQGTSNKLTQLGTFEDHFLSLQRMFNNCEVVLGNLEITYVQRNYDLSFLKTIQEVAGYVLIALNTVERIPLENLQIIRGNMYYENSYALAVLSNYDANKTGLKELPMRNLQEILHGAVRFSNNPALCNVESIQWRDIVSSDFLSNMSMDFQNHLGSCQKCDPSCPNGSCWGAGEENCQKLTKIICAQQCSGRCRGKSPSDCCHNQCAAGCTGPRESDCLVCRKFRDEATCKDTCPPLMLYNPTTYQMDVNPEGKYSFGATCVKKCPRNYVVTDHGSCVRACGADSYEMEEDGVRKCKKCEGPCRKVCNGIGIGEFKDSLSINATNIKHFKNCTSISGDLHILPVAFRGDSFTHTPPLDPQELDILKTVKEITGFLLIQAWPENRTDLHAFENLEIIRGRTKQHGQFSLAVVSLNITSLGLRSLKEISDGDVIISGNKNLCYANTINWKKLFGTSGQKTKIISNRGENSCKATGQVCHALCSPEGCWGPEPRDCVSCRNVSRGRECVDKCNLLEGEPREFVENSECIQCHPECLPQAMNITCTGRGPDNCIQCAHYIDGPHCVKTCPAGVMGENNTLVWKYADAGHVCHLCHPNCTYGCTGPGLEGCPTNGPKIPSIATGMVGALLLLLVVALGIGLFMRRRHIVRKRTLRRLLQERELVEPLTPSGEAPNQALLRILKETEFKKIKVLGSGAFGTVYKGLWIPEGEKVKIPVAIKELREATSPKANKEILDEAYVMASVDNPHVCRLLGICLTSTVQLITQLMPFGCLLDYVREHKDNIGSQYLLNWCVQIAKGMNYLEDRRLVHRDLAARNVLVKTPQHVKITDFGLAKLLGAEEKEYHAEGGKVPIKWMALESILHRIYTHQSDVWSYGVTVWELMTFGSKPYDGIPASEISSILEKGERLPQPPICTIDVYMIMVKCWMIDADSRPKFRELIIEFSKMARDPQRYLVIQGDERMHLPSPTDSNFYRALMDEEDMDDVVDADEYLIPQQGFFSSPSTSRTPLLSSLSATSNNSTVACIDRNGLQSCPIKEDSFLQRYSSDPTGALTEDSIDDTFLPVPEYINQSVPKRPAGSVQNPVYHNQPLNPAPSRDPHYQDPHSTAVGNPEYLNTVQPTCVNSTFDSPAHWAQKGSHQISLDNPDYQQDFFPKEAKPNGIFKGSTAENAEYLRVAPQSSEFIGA

[9] = target: T3, Serine/threonine-protein kinase ULK1 (Homo sapiens) (UniProt O75385); assay: Selectivity interaction (KinomeScan (DiscoverX)) EUB0001619a ULK1; conditions: at 1 µM
T3 sequence (whole entry): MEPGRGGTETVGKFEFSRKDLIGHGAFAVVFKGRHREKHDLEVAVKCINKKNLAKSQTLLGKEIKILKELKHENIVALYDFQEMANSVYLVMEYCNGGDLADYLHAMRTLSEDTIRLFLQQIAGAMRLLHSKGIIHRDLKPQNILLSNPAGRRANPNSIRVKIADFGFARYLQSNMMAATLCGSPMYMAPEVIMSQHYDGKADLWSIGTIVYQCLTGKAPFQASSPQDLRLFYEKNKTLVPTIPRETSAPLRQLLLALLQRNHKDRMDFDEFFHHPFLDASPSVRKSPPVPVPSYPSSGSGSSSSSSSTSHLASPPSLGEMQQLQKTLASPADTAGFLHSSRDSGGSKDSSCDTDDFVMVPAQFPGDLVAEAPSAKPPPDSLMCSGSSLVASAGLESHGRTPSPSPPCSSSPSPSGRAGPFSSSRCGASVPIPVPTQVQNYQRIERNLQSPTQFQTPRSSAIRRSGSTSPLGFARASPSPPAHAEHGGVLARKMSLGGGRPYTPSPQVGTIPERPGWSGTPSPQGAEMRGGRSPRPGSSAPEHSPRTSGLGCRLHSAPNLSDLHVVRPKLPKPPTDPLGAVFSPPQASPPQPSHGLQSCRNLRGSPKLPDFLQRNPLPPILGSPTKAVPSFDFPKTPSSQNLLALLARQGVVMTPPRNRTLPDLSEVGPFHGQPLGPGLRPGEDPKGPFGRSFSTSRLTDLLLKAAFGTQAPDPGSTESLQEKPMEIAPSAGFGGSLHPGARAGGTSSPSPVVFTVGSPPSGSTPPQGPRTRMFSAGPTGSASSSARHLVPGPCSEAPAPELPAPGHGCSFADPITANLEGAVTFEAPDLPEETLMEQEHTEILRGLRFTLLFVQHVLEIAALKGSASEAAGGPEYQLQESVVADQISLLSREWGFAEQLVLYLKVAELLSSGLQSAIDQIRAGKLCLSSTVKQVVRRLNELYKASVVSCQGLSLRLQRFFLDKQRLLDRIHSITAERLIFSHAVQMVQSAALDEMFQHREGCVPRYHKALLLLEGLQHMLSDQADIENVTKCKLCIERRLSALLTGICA

[10] = target: T4, Uncharacterized serine/threonine-protein kinase SBK3 (Homo sapiens) (UniProt P0C264); assay: Selectivity interaction (KinomeScan (DiscoverX)) EUB0000655a SBK3; conditions: at 10 µM
T4 sequence (whole entry): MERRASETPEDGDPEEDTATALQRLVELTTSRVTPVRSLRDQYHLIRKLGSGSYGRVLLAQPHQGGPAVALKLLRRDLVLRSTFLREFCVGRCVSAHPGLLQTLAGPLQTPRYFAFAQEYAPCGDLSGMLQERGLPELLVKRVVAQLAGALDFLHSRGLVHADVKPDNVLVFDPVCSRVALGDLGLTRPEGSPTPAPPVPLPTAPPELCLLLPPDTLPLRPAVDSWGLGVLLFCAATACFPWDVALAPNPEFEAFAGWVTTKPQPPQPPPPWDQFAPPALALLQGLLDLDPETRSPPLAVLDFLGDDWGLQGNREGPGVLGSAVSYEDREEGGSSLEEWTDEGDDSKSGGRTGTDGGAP

[11] = target: Serine/threonine-protein kinase 25 (Homo sapiens) (UniProt O00506); assay: Selectivity interaction (KinomeScan (DiscoverX)) EUB0000695a STK25; conditions: at 100 nM
Sequence of Serine/threonine-protein kinase 25 (Homo sapiens) (O00506 whole entry, looked up): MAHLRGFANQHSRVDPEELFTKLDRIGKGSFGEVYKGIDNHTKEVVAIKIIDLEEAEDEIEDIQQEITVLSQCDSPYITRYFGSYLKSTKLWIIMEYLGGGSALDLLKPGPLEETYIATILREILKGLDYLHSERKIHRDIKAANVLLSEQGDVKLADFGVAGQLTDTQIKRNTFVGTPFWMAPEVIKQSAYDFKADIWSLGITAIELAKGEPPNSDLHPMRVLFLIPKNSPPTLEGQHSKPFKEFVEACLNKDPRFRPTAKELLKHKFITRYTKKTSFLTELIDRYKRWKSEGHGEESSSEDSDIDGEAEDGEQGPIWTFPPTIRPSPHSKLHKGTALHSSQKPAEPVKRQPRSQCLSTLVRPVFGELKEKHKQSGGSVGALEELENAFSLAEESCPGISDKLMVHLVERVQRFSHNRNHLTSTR

Sequence of Mitogen-activated protein kinase kinase kinase 20 (Homo sapiens) (Q9NYL2 2-800 limits assumed): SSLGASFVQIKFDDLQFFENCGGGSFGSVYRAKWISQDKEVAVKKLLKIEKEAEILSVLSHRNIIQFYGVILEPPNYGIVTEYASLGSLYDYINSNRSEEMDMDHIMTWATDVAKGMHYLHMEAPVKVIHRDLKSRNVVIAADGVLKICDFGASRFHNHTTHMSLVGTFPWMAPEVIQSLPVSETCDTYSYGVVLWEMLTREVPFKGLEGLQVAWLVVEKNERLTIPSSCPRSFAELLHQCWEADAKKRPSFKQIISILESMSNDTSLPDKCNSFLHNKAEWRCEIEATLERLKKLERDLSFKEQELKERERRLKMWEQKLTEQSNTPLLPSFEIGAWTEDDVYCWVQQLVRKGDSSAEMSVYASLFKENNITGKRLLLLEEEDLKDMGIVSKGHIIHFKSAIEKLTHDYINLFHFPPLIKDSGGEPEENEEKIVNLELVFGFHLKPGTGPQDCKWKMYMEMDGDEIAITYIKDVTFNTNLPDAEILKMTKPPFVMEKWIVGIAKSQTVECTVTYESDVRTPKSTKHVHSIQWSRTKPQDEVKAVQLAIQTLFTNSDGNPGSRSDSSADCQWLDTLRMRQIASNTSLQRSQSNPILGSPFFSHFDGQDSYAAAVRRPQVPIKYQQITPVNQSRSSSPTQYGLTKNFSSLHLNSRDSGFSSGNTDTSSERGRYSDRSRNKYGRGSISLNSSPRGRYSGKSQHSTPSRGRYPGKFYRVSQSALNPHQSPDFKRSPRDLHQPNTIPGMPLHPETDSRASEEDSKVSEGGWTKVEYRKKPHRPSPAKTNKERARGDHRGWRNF

`COc1cc(Nc2nc(C)cc(-c3cnn4nc(OC)ccc34)n2)cc(C(F)(F)F)c1` was tested, and the % of control [1] was 77% and the % of control [2] was 98%.
Work on `CNCCN1CCC(c2cc(CN(C)C(=O)c3cccc(Oc4ccccc4)c3)ccn2)CC1` yielded a % activity [3] greater than 85%.
With `COc1cc(N(C)c2ccnc3ccc(C(F)(F)F)cc23)cc(OC)c1OC` the % binding [4] was 85%.
With `CCC(=O)N1CC[C@H](Nc2ncnc3c2CN(c2cnc(OC)c(C(F)(F)F)c2)CC3)C1` [LENIOLISIB] the IC50 [5] was greater than 30 µM.
`CC[C@@H]1[C@H](F)C(=O)N[C@@H]1COc1nccc2cc(C(N)=O)c(OC)cc12` [ZIMLOVISERTIB] was tested, and the % of inhibition ([6]; at 0.01 µM) was -24.7%, the % of inhibition ([6]; at 0.04 µM) was -15% and the % of inhibition ([6]; at 0.2 µM) was -4.7%. It also gave a % of inhibition ([6]; at 1 µM) of -15.6% and a % of inhibition ([6]; at 5 µM) of -19.6%.
For `Cc1cnc(Nc2ccc(F)cc2Cl)nc1-c1c[nH]c(C(=O)N[C@H](CO)c2cccc(Cl)c2)c1`, the % of inhibition [7] was 12%.
`Cc1cc([C@@H](C)Nc2ccccc2C(=O)O)c2nc(N3CCOCC3)cc(=O)n2c1` [AZD-6482] was tested, and the % of control [8] was 100%.
Compound `N#Cc1cccc(-c2c[nH]c3ncnc(N4CCOCC4)c23)c1` has a % of control [9] of 65%.
With `CN(C)CCOc1ccc(-c2nc(-c3ccncc3)c(-c3ccc4c(c3)CC/C4=N\O)[nH]2)cc1` the % of control [10] was 100%.
Compound `Cc1cc(F)c(C(=O)Nc2cccc(-c3nncn3C(C)C)n2)cc1-n1cnc(C2CC2)c1` has a % of control [11] of 100%.
